According to patent publication US7235392B2, “Apoptotic EBV-transformed lymphocytes, a therapeutic agent for post-transplant lymphoproliferative disorder” (The Ohio State University Research Foundation, priority 2001, dated 2007):

Legend:
[1] = test system: PA-Lymphoblastoid Cell Line; assay: PA-Lymphoblastoid Cell Line: effect of oxygen deprivation in the presence of 3 sensitizers (cell counts); assay type: cell-based; conditions: for cell count, Time (hour) 0: time 0 h; for cell count, Time (hour) 0 / cell count, Time (hour) 4 / cell count, Time (hour) 20: solutions and cells bubbled with nitrogen for 15 minutes (oxygen deprivation); for cell count, Time (hour) 4: time 4 h; for cell count, Time (hour) 20: time 20 h
Protocol: PA-Lymphoblastoid Cell Line: Study of the effect of oxygen deprivation in the presence of 3 sensitizers Six solutions were prepared having the solutions and the cells from each of the 6 sets were “bubbled” with nitrogen separately for 15 minutes before being mixed.

LCLs = assay: Cell synchronization with aphidicolin, flow cytometric cell cycle analysis of propidium iodide stained cells; assay type: cell-based, human
Source text: Using a method described by Matherly^1 cell synchronization may be achieved with the drug aphidicolin, a DNA polymerase inhibitor. This drug prevents the cells from entering S-phase, the phase during which the cells replicate their DNA. Therefore, the cells accumulate at G1 phase, immediately prior to the start of S phase. These effects of aphidicolin are reversible; the cells return to normal cell-cycling soon after the drug is removed from the culture by washing. Thus, because all of the cells were synchronized together in G1, after removal of aphidicolin, they will proceed through S-phase together. Using flow cytometric analyis of propidium-iodine stained cells, as described by Krishan^2, we were able to determine the stage of cell cycle of the cultures:
Consequently, we hypothesize that treatment with aphidicolin will increase the effectiveness of specific killing via RBO-DNA photochemistry.

[2] = test system: EBV infected human lymphoblastoid cells (LCLs); conditions: 10 mM glutathione

## Cc1cc2c(cc1C)[n+]([O-])c1c(=O)[nH]c(=O)nc-1n2CC(O)C(O)C(O)CO (stereo not shown) [RBO, riboflavin N-oxide]
[1]; oxygen deprivation, conclusion from cell counts
  hypoxic toxicity: high hypoxic toxicity
[1]
  cell count, Time (hour) 0: 0.45 million cells/mL
  cell count, Time (hour) 4: 0.46 million cells/mL
  cell count, Time (hour) 20: 0.06 million cells/mL

## Cc1cc2nc3c(=O)[nH]c(=O)nc-3n(C[C@H](O)[C@H](O)[C@H](O)CO)c2cc1C [Riboflavin (RB), Riboflavin]
[1]
  cell count, Time (hour) 0: 1 million cells/mL
  cell count, Time (hour) 4: 0.9 million cells/mL
  cell count, Time (hour) 20: 0.63 million cells/mL

## Nc1n[n+]([O-])c2ccccc2[n+]1[O-] [Tirapazamine (TPZ), Tirapazamine]
[1]
  cell count, Time (hour) 0: 0.4 million cells/mL
  cell count, Time (hour) 4: 0.4 million cells/mL
  cell count, Time (hour) 20: 0.36 million cells/mL

## C[C@@]1(CO)[C@H](O)CC[C@@]2(C)[C@H]1CC[C@H]1C[C@@H]3C[C@@]12CC[C@]3(O)CO [aphidicolin]
LCLs; after aphidicolin treatment and removal
  proportion of cells in S-phase: significantly increases
LCLs; after removal of aphidicolin from solution
  time of peak proportion of cells in S-phase after removal of aphidicolin: 6 h

## N[C@@H](CCC(=O)N[C@@H](CS)C(=O)NCC(=O)O)C(=O)O [glutathione]
[2]
  cell growth: grow normally
